From patent US8063071B2 (GlaxoSmithKline, LLC, priority 2007, dated 2011)
Counter-ions that a name gives are not always drawn.

What was measured:
[1] = tested on: human monocyte stimulated cytokine production (TNF-α); test: Monocyte assay (LPS-stimulated TNF-α production); assay type: cell-based; conditions: for IC50: 24 h, 200 ng/mL LPS, TNF-α by ELISA; for inhibition at 0.3 µM: read-out: inhibition at 300 nM in the monocyte assay
How it was run: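 TNF-α release was measured by ELISA after 24 hrs at 37 C. Cells were stimulated with 200 ng/mL E. coli LPS, with compound added 30 minutes beforehand (0.1% DMSO vehicle). Cells were Ficoll/MACS-isolated CD14+ human monocytes adhered at 1×10^6 cells/mL, and viability was checked by trypan blue.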

[2] = target: T1, Recombinant human IKKβ (residues 1-737) (Homo sapiens, UniProt O14920); test: IKK2 assay (TR-FRET); assay type: biochemical; conditions: ATP 1 μM final, read-out: pIC50 against IKK2 (converted)
T1 construct: Recombinant human IKKβ (residues 1-737); GST (C); made in house
T1 sequence (O14920 1-737): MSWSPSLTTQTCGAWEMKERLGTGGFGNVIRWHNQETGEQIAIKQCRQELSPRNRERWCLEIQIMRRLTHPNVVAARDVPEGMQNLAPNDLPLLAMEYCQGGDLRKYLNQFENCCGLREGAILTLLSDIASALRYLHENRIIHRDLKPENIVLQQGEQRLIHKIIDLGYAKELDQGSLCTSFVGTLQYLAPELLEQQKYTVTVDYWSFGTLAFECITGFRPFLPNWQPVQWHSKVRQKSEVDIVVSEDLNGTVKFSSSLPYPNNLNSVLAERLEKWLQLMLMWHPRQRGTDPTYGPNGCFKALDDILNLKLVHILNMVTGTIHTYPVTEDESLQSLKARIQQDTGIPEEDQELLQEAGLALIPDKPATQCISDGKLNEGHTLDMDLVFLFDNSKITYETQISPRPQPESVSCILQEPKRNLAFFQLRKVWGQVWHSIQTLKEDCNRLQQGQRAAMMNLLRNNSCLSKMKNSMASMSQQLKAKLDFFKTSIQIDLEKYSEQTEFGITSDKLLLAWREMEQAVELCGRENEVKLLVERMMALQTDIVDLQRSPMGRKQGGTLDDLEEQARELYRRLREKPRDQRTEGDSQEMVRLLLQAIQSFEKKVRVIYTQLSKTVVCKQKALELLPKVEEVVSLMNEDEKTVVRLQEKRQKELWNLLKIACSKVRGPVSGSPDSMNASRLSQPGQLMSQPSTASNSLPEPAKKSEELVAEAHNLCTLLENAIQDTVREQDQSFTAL
How it was run: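 TR-FRET readout (665 nm over 620 nm Eu reference) of GST-IB Ser32/36 phosphorylation after 60 min detection. Reaction: 1 μM ATP, 25 nM substrate, 0.5-5 nM GST-fused IKKβ 1-737 from baculovirus, pH 7.4 HEPES buffer, 1.7% DMSO, 15 min room temperature, EDTA-terminated.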

Row | IC50 [1] | IC50 [2] | Structure (SMILES) | inhibition at 0.3 µM [1]
1 | ≤ 1500 nM | ≤ 10 µM | CCOC(=O)CN(C)Cc1cc(-c2cc(C(N)=O)c3[nH]cc(C4CCN(S(=O)(=O)CC)CC4)c3c2)cs1 [Example 434, ethyl N-[(4-[7-(aminocarbonyl)-3-[1-(ethylsulfonyl)-4-piperidinyl]-1H-indol-5-yl]-2-thienyl)methyl]-N-methylglycinate] | 
2 | ≤ 1500 nM | ≤ 10 µM | CCN(CC)CCN(C)Cc1cc(-c2cc(C(N)=O)c3[nH]cc(C4CCN(S(=O)(=O)CC)CC4)c3c2)cs1 [Example 66, 5-(5-{[[2-(diethylamino)ethyl](methyl)amino]methyl}-3-thienyl)-3-[1-(ethylsulfonyl)-4-piperidinyl]-1H-indole-7-carboxamide trifluoroacetate] | 
3 |  | ≤ 10 µM | CCS(=O)(=O)N1CCC(c2c[nH]c3c(C(N)=O)cc(-c4csc(CN5CCC[C@@H]5C(N)=O)c4)cc23)CC1 [Example 48, 5-(5-{[(2R)-2-(aminocarbonyl)-1-pyrrolidinyl]methyl}-3-thienyl)-3-[1-(ethylsulfonyl)-4-piperidinyl]-1H-indole-7-carboxamide] | 0 to 60%
4 | ≤ 1500 nM | ≤ 10 µM | CCS(=O)(=O)N1CCC(c2c[nH]c3c(C(N)=O)cc(-c4csc(CN5CCC[C@@H]5COC)c4)cc23)CC1 [Example 124, 3-[1-(ethylsulfonyl)-4-piperidinyl]-5-[5-({(2R)-2-[(methyloxy)methyl]-1-pyrrolidinyl}methyl)-3-thienyl]-1H-indole-7-carboxamide trifluoroacetate] | 
5 | ≤ 1500 nM | ≤ 10 µM | CCS(=O)(=O)N1CCC(c2c[nH]c3c(C(N)=O)cc(-c4csc(CN(C)C5CCCCC5)c4)cc23)CC1 [Example 96, 5-(5-{[cyclohexyl(methyl)amino]methyl}-3-thienyl)-3-[1-(ethylsulfonyl)-4-piperidinyl]-1H-indole-7-carboxamide] | 
6 | ≤ 1500 nM | ≤ 10 µM | CCCNCc1cc(-c2cc(C(N)=O)c3[nH]cc(C4CCN(S(=O)(=O)CC)CC4)c3c2)cs1 [Example 106, 3-[1-(ethylsulfonyl)-4-piperidinyl]-5-{5-[(propylamino)methyl]-3-thienyl}-1H-indole-7-carboxamide trifluoroacetate] | 
7 | ≤ 1500 nM | ≤ 10 µM | CCS(=O)(=O)N1CCC(c2c[nH]c3c(C(N)=O)cc(-c4csc(CN(C)Cc5c(C)n[nH]c5C)c4)cc23)CC1 [Example 400, 5-(5-{[[(3,5-dimethyl-1H-pyrazol-4-yl)methyl](methyl)amino]methyl}-3-thienyl)-3-[1-(ethylsulfonyl)-4-piperidinyl]-1H-indole-7-carboxamide] | 

The remaining lines, values behind:

Row | Structure (SMILES) | IC50 [1] | IC50 [2] | inhibition at 0.3 µM [1]
8 | CCS(=O)(=O)N1CCC(c2c[nH]c3c(C(N)=O)cc(-c4cc(CNCCCOC)ccc4F)cc23)CC1 [Example 343, 3-[1-(ethylsulfonyl)-4-piperidinyl]-5-[2-fluoro-5-({[3-(methyloxy)propyl]amino}methyl)phenyl]-1H-indole-7-carboxamide trifluoroacetate] | ≤ 1500 nM | ≤ 10 µM | 
9 | CCS(=O)(=O)N1CCC(c2c[nH]c3c(C(N)=O)cc(-c4ccc(CNC(=O)c5ccncc5)cc4)cc23)CC1 [Example 129, 3-[1-(ethylsulfonyl)-4-piperidinyl]-5-(4-{[(4-pyridinylcarbonyl)amino]methyl}phenyl)-1H-indole-7-carboxamide] | ≤ 1500 nM | ≤ 10 µM | 
10 | CCCCNCc1ccc(-c2cc(C(N)=O)c3[nH]cc(C4CCN(S(=O)(=O)CC)CC4)c3c2)s1 [Example 187, 5-{5-[(butylamino)methyl]-2-thienyl}-3-[1-(ethylsulfonyl)-4-piperidinyl]-1H-indole-7-carboxamide] |  | ≤ 10 µM | 0 to 60%
11 | CCS(=O)(=O)N1CCC(c2c[nH]c3c(C(N)=O)cc(-c4ccc(CN5CCCC5)s4)cc23)CC1 [Example 239, 3-[1-(ethylsulfonyl)-4-piperidinyl]-5-[5-(1-pyrrolidinylmethyl)-2-thienyl]-1H-indole-7-carboxamide trifluoroacetate] | ≤ 1500 nM | ≤ 10 µM | 
12 | CCS(=O)(=O)N1CCC(c2c[nH]c3c(C(N)=O)cc(-c4cc(F)cc(CNCc5ccc(C)o5)c4)cc23)CC1 [Example 330, 3-[1-(ethylsulfonyl)-4-piperidinyl]-5-[3-fluoro-5-({[(5-methyl-2-furanyl)methyl]amino}methyl)phenyl]-1H-indole-7-carboxamide trifluoroacetate] | > 1000 nM | ≤ 10 µM | 
13 | CCS(=O)(=O)N1CCC(c2c[nH]c3c(C(N)=O)cc(-c4cc(CNCC(C)C)cs4)cc23)CC1 [Example 210, 3-[1-(ethylsulfonyl)-4-piperidinyl]-5-(4-{[(2-methylpropyl)amino]methyl}-2-thienyl)-1H-indole-7-carboxamide trifluoroacetate] | ≤ 1500 nM | ≤ 10 µM | 
14 | CCS(=O)(=O)N1CCC(c2c[nH]c3c(C(N)=O)cc(-c4ccc(CNC(=O)c5ccco5)cc4)cc23)CC1 [Example 131, 3-[1-(ethylsulfonyl)-4-piperidinyl]-5-(4-{[(2-furanylcarbonyl)amino]methyl}phenyl)-1H-indole-7-carboxamide] | ≤ 1500 nM | ≤ 10 µM | 
15 | CCS(=O)(=O)N1CCC(c2c[nH]c3c(C(N)=O)cc(-c4cc(F)cc(CNCCCOC)c4)cc23)CC1 [Example 327, 3-[1-(ethylsulfonyl)-4-piperidinyl]-5-[3-fluoro-5-({[3-(methyloxy)propyl]amino}methyl)phenyl]-1H-indole-7-carboxamide trifluoroacetate] | ≤ 1500 nM | ≤ 10 µM | 
16 | CCS(=O)(=O)N1CCC(c2c[nH]c3c(C(N)=O)cc(-c4cccc(CNC(=O)C5CCCC5)c4)cc23)CC1 [Example 362, 5-(3-{[(cyclopentylcarbonyl)amino]methyl}phenyl)-3-[1-(ethylsulfonyl)-4-piperidinyl]-1H-indole-7-carboxamide trifluoroacetate] | > 1000 nM | ≤ 10 µM | 
17 | CCS(=O)(=O)N1CCC(c2c[nH]c3c(C(N)=O)cc(-c4cc(CN5[C@H](C)CC[C@H]5C)cs4)cc23)CC1 [Example 216, 5-(4-{[(2R,5R)-2,5-dimethyl-1-pyrrolidinyl]methyl}-2-thienyl)-3-[1-(ethylsulfonyl)-4-piperidinyl]-1H-indole-7-carboxamide trifluoroacetate] | ≤ 1500 nM | ≤ 10 µM | 
18 | CCS(=O)(=O)N1CCC(c2c[nH]c3c(C(N)=O)cc(-c4cccc(CNC)c4)cc23)CC1 [Example 28, 3-[1-(ethylsulfonyl)-4-piperidinyl]-5-{3-[(methylamino)methyl]phenyl}-1H-indole-7-carboxamide] | ≤ 1500 nM | ≤ 10 µM | 
19 | CCS(=O)(=O)N1CCC(c2c[nH]c3c(C(N)=O)cc(-c4ccc(CNC(=O)C5CCC5)cc4)cc23)CC1 [Example 159, 5-(4-{[(cyclobutylcarbonyl)amino]methyl}phenyl)-3-[1-(ethylsulfonyl)-4-piperidinyl]-1H-indole-7-carboxamide] | > 1000 nM | ≤ 10 µM | 
20 | CCS(=O)(=O)N1CCC(c2c[nH]c3c(C(N)=O)cc(-c4coc(CN5CCCC5)c4)cc23)CC1 [Example 247, 3-[1-(ethylsulfonyl)-4-piperidinyl]-5-[5-(1-pyrrolidinylmethyl)-3-furanyl]-1H-indole-7-carboxamide trifluoroacetate] | ≤ 1500 nM | ≤ 10 µM | 
21 | CCS(=O)(=O)N1CCC(c2c[nH]c3c(C(N)=O)cc(-c4ccc(CNC(C)C)cc4)cc23)CC1 [Example 140, 3-[1-(ethylsulfonyl)-4-piperidinyl]-5-(4-{[(1-methylethyl)amino]methyl}phenyl)-1H-indole-7-carboxamide] | > 1000 nM | ≤ 10 µM | 
22 | CCS(=O)(=O)N1CCC(c2c[nH]c3c(C(N)=O)cc(-c4ccnc(NCC(C)(C)C)c4)cc23)CC1 [Example 206, 5-{2-[(2,2-dimethylpropyl)amino]-4-pyridinyl}-3-[1-(ethylsulfonyl)-4-piperidinyl]-1H-indole-7-carboxamide trifluoroacetate] | > 1000 nM | ≤ 10 µM | 
23 | CCS(=O)(=O)N1CCC(c2c[nH]c3c(C(N)=O)cc(-c4cccc(CN(C)CCS(C)(=O)=O)c4)cc23)CC1 [Example 4, 3-[1-(ethylsulfonyl)-4-piperidinyl]-5-[3-({methyl[2-(methylsulfonyl)ethyl]amino}methyl)phenyl]-1H-indole-7-carboxamide] | > 1000 nM | ≤ 10 µM | 
